{"source": "patent US20050004017A1", "about": "“Methods and compositions for treating hcap associated diseases” (priority 2001, published 2005)", "test_system": "HCAP interaction with ErbB-2", "experiment": "Co-immunoprecipitation of HCAP with anti-ErbB-2 antibody from radicicol-treated T47D cells", "format": "cell-based", "details": "T47D cells treated with radicicol (3 μM) for 0, 3 or 6 hours; gel electrophoresis, bands identified by mass spectroscopy", "method": "Band numbers 30 and 35 were identified by mass spectroscopic analysis as hepatocellular associated protein (HCAP). […] T47D cells, a breast cancer cell line that is mutant for the p53 tumor suppressor gene and ErbB-2 positive, were treated with radicicol (RA) for 0, 3 or 6 hours, and then proteins were immunoprecipitated using an anti-ErbB-2 antibody and resolved by gel electrophoresis. […] Band nos. 30 and 35 were identified by mass spectroscopic analysis to be hepatocarcinoma associated protein (HCAP). The amount of HCAP immunoprecipitated with anti-ErbB-2 antibody decreased in the presence of RA.", "data": [{"smiles": "C[C@@H]1C[C@H]2O[C@@H]2/C=C\\C=C\\C(=O)Cc2c(Cl)c(O)cc(O)c2C(=O)O1", "note": "[radicicol, Radicicol]", "values": [{"measurement": "amount of HCAP immunoprecipitated with anti-ErbB-2 antibody", "result": "decreased"}]}]}
